One test addresses KRAS G12D (Homo sapiens, UniProt P01116, G12D). In words: KRAS G12D Probe Displacement Assay (TR-FRET, GDP-loaded). The note with it: KRAS G12D, read-out: KRAS^G12D Probe Displacement Assay IC50. In kind it is binding. An excerpt:
(§1) The synthetic routes of probe 1 and 2, which have been disclosed in PCT/CN2022/070676, are hereby incorporated herein.
(In general: In TR-FRET formats the signal depends on donor and acceptor labels being close together.)

Another test has as its target WT KRAS (Homo sapiens, UniProt P01116). In words: KRAS WT Probe Displacement Assay (TR-FRET, GDP-loaded). The format is binding. Particulars: KRAS WT, read-out: KRAS^WT Probe Displacement Assay IC50.
Excerpt: as §1

The structures appear in SMILES notation. Where a name gives a salt, the structure may show the parent alone.

One may read the IC50 as the concentration at which inhibition is half-maximal.

Sequence of WT KRAS (P01116 1-188 isoform P01116-2): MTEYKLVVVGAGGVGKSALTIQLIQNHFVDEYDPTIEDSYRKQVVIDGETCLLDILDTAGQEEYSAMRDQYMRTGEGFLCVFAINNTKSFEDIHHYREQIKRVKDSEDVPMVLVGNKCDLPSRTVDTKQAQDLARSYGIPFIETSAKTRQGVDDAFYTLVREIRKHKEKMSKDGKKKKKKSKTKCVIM
Sequence of KRAS G12D (P01116 1-188 isoform P01116-2 G12D): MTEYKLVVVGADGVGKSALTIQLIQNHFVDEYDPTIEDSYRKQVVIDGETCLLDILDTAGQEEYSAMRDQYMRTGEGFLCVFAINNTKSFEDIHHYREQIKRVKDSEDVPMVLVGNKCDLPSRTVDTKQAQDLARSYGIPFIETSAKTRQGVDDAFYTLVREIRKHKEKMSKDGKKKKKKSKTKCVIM

With `CO[C@@H]1CCN(CC2(COc3nc4c5c(nc(-c6cc(N)cc(C)c6C(F)(F)F)c(F)c5n3)OCC[C@@H]3[C@@H]5CC[C@H](CN43)N5)CC2)C[C@@H]1F` [Example 184, 3-((6aR,7S,10R)-1-fluoro-13-((1-(((3S,4R)-3-fluoro-4-methoxypiperidin-1-yl)methyl)cyclopropyl)methoxy)-5,6,6a,7,8,9,10,11-octahydro-4-oxa-3,11a,12,14,15-pentaaza-7,10-methanocyclohepta[4,5]cycloocta[1,2,3-de]naphthalen-2-yl)-5-methyl-4-(trifluoromethyl)aniline], the IC50 was below 0.3 nM on KRAS G12D and 3 to 1000 nM on WT KRAS.

Regarding `Cc1cc(N)cc(-c2nc3c4c(nc(OCC5(C)CN(C)CC/C5=C\F)nc4c2F)N2C[C@H]4CC[C@H](N4)[C@H]2CCO3)c1C(F)(F)F` (single isomer, unassigned) [Example 236], the values for the IC50 at KRAS G12D and on WT KRAS were below 0.3 nM and 3 to 1000 nM, respectively.

Take `Cc1cc(N)cc(-c2nc3c4c(nc(OC[C@H]5COC[C@H]5N(C)C)nc4c2F)N2C[C@H]4CC[C@H](N4)[C@H]2CCO3)c1C(F)(F)F` [Example 41, (3S,4R)-4-((((6aR,7S,10R)-2-(5-amino-3-methyl-2-(trifluoromethyl)phenyl)-1-fluoro-5,6,6a,7,8,9,10,11-octahydro-4-oxa-3,11a,12,14,15-pentaaza-7,10-methanocyclohepta[4,5]cycloocta [1,2,3-de]naphthalen-13-yl)oxy)methyl)-N,N-dimethyltetrahydrofuran-3-amine]: the IC50 lay within 0.3 to 3 nM on KRAS G12D and 3 to 1000 nM at WT KRAS.

Take `CN(C)CC1(COc2nc3c4c(nc(-c5cc(N)cc(Cl)c5C(F)(F)F)c(F)c4n2)OCC[C@@H]2[C@@H]4CC[C@H](CN32)N4)CC1F` (single isomer, unassigned) [Example 52]: the IC50 at KRAS G12D is below 0.3 nM; on WT KRAS, 0.3 to 3 nM.

On to `Cc1cc(N)cc(-c2nc3c4c(nc(OCC5(F)COCC5N(C)C)nc4c2F)N2C[C@H]4CC[C@H](N4)[C@H]2CCO3)c1C(F)(F)F` (stereo partly drawn) [Example 132, 4-((((6aR,7S,10R)-2-(5-amino-3-methyl-2-(trifluoromethyl)phenyl)-1-fluoro-5,6,6a,7,8,9,10,11-octahydro-4-oxa-3,11a,12,14,15-pentaaza-7,10-methanocyclohepta[4,5]cycloocta [1,2,3-de]naphthalen-13-yl)oxy)methyl)-4-fluoro-N,N-dimethyltetrahydrofuran-3-amine], for which the IC50 at KRAS G12D lay within 0.3 to 3 nM; on WT KRAS it was 3 to 1000 nM.

In the case of `Cc1cc(N)cc(-c2nc3c4c(nc(OCC5(CN6CC[C@H](F)C6)CC5)nc4c2F)N2C[C@H]4CC[C@H](N4)[C@H]2CCO3)c1C(F)(F)F` [Example 157, 3-((6aR,7S,10R)-1-fluoro-13-((1-(((S)-3-fluoropyrrolidin-1-yl)methyl)cyclopropyl)methoxy)-5,6,6a,7,8,9,10,11-octahydro-4-oxa-3,11a,12,14,15-pentaaza-7,10-methanocyclohepta[4,5]cycloocta[1,2,3-de]naphthalen-2-yl)-5-methyl-4-(trifluoromethyl)aniline], the IC50 is below 0.3 nM at KRAS G12D and 3 to 1000 nM on WT KRAS.

For `Cc1cc(N)cc(-c2nc3c4c(nc(OCC5(CN6CCC(F)CC6)CC5)nc4c2F)N2C[C@H]4CC[C@H](N4)[C@H]2CCO3)c1C(F)(F)F` [Example 66, 3-((6aR,7S,10R)-1-fluoro-13-((1-((4-fluoropiperidin-1-yl)methyl)cyclopropyl)methoxy)-5,6,6a,7,8,9,10,11-octahydro-4-oxa-3,11a,12,14,15-pentaaza-7,10-methanocyclohepta[4,5]cycloocta [1,2,3-de]naphthalen-2-yl)-5-methyl-4-(trifluoromethyl)aniline], the IC50 at KRAS G12D is below 0.3 nM; on WT KRAS, 3 to 1000 nM.

Consider `Cc1cc(N)cc(-c2nc3c4c(nc(OCC5(CN6C[C@H](C)O[C@@H](C)C6)CC5(F)F)nc4c2F)N2C[C@H]4CC[C@H](N4)[C@H]2CCO3)c1C(F)(F)F` (single isomer, unassigned) [Example 26], for which the IC50 on KRAS G12D lay within 0.3 to 3 nM; at WT KRAS, 3 to 1000 nM.

As for `Cc1cc(N)cc(-c2nc3c4c(nc(OCC5(CN6C[C@H](O)[C@@H](F)C6)CC5)nc4c2F)N2C[C@H]4CC[C@H](N4)[C@H]2CCO3)c1C(F)(F)F` (stereo in doubt) [Example 94, trans-1-((1-((((6aR, 7S,10R)-2-(5-amino-3-methyl-2-(trifluoromethyl)phenyl)-1-fluoro-5,6,6a,7,8,9,10,11-octahydro-4-oxa-3,11a,12,14,15-pentaaza-7,10-methanocyclohepta [4,5]cycloocta[1,2,3-de]naphthalen-13-yl)oxy)methyl)cyclopropyl)methyl)-4-fluoropyrrolidin-3-ol formate], the IC50 on KRAS G12D was below 0.3 nM; at WT KRAS it was 3 to 1000 nM.

As for `Cc1cc(N)cc(-c2nc3c4c(nc(OCC5(CN6CCC(C)(O)CC6)CC5)nc4c2F)N2C[C@H]4CC[C@H](N4)[C@H]2CCO3)c1C(F)(F)F` [Example 115, 1-((1-((((6aR,7S, 10R)-2-(5-amino-3-methyl-2-(trifluoromethyl)phenyl)-1-fluoro-5,6,6a,7,8,9,10,11-octahydro-4-oxa-3, 11a,12,14,15-pentaaza-7,10-methanocyclohepta [4,5]cycloocta[1,2,3-de]naphthalen-13-yl)oxy)methyl)cyclopropyl)methyl)-4-methylpiperidin-4-ol], the IC50 on KRAS G12D was below 0.3 nM; at WT KRAS, 0.3 to 3 nM.

`[2H]C([2H])([2H])N1C[C@H](OC)C[C@H]1[C@H](C)Oc1nc2c3c(nc(-c4cc(N)cc(C)c4C(F)(F)F)c(F)c3n1)OCC[C@@H]1[C@@H]3CC[C@H](CN21)N3` [Example 219, 3-((6aR,7S,10R)-1-fluoro-13-((S)-1-((2S,4R)-4-methoxy-1-(methyl-d3)pyrrolidin-2-yl)ethoxy)-5,6,6a,7,8,9,10,11-octahydro-4-oxa-3,11a,12,14,15-pentaaza-7,10-methanocyclohepta[4,5]cycloocta[1,2,3-de]naphthalen-2-yl)-5-methyl-4-(trifluoromethyl)aniline]: the IC50 on KRAS G12D was below 0.3 nM; at WT KRAS it was 3 to 1000 nM.

With `Cc1cc(N)cc(-c2nc3c4c(nc(OCC5(CN6C[C@H]7C[C@H]7[C@H]6CO)CC5)nc4c2F)N2C[C@H]4CC[C@H](N4)[C@H]2CCO3)c1C(F)(F)F` [Example 98, ((1R,2S,5S)-3-((1-((((6aR,7S,10R)-2-(5-amino-3-methyl-2-(trifluoromethyl)phenyl)-1-fluoro-5,6,6a,7,8,9,10,11-octahydro-4-oxa-3,11a,12,14,15-pentaaza-7,10-methanocyclohepta [4,5]cycloocta[1,2,3-de]naphthalen-13-yl)oxy)methyl)cyclopropyl)methyl)-3-azabicyclo [3.1.0]hexan-2-yl) methanol], the IC50 is below 0.3 nM at KRAS G12D and 3 to 1000 nM at WT KRAS.

As for `Cc1cc(N)cc(-c2nc3c4c(nc(OCC5(CN6CC7CC7C6)CC5)nc4c2F)N2C[C@H]4CC[C@H](N4)[C@H]2CCO3)c1C(F)(F)F` (stereo partly drawn) [Example 71, 3-((6aR,7S,10R)-13-((1-((3-azabicyclo[3.1.0]hexan-3-yl)methyl)cyclopropyl)methoxy)-1-fluoro-5,6,6a,7,8,9,10,11-octahydro-4-oxa-3,11a,12,14,15-pentaaza-7,10-methanocyclohepta[4,5]cycloocta [1,2,3-de]naphthalen-2-yl)-5-methyl-4-(trifluoromethyl)aniline], the IC50 was below 0.3 nM at KRAS G12D and 3 to 1000 nM at WT KRAS.

On to `Cc1cc(N)cc(-c2nc3c4c(nc(OCC5(C6CCCN6C)CC5)nc4c2F)N2C[C@H]4CC[C@H](N4)[C@H]2CCO3)c1C(F)(F)F` (single isomer, unassigned) [Example 133], for which the results for the IC50 at KRAS G12D and on WT KRAS were below 0.3 nM and 3 to 1000 nM, respectively.

Consider `Cc1cc(N)cc(-c2nc3c4c(nc(N5CC(N(C)C)C5)nc4c2F)N2C[C@H]4CC[C@H](N4)[C@H]2CCO3)c1C(F)(F)F` [Example 32, 1-((6aR,7S,10R)-2-(5-amino-3-methyl-2-(trifluoromethyl)phenyl)-1-fluoro-5,6,6a,7,8,9,10,11-octahydro-4-oxa-3,11a,12,14,15-pentaaza-7,10-methanocyclohepta[4,5]cycloocta [1,2,3-de]naphthalen-13-yl)-N,N-dimethylazetidin-3-amine], for which the IC50 at KRAS G12D lay within 0.3 to 3 nM; at WT KRAS, 3 to 1000 nM.

For the compound `Cc1cc(N)cc(-c2nc3c4c(nc(OCC5(CN6CCC(O)(C(F)(F)F)CC6)CC5)nc4c2F)N2C[C@H]4CC[C@H](N4)[C@H]2CCO3)c1C(F)(F)F` [Example 114, 1-((1-((((6aR,7S,10R)-2-(5-amino-3-methyl-2-(trifluoromethyl)phenyl)-1-fluoro-5,6,6a,7,8,9,10,11-octahydro-4-oxa-3,11a,12,14,15-pentaaza-7,10-methanocyclohepta [4,5]cycloocta [1,2,3-de]naphthalen-13-yl)oxy)methyl)cyclopropyl)methyl)-4-(trifluoromethyl) piperidin-4-ol], the IC50 on KRAS G12D is below 0.3 nM; at WT KRAS it was 0.3 to 3 nM.

For the compound `Cc1cc(N)cc(-c2nc3c4c(nc(OCC5(C6CCCN6C)CC5)nc4c2F)N2C[C@H]4CC[C@H](N4)[C@H]2CCO3)c1C(F)(F)F` (mixture of isomers) [Example 63, 3-((6aR,7S,10R)-1-fluoro-13-((1-(1-methylpyrrolidin-2-yl)cyclopropyl)methoxy)-5,6,6a,7,8,9,10,11-octahydro-4-oxa-3,11a,12,14,15-pentaaza-7,10-methanocyclohepta[4,5]cycloocta[1,2,3-de]naphthalen-2-yl)-5-methyl-4-(trifluoromethyl)aniline], the values for the IC50 at KRAS G12D and at WT KRAS were below 0.3 nM and 3 to 1000 nM, respectively.

Consider `Cc1cc(N)cc(-c2nc3c4c(nc(OCC5(C(C)N(C)C)CC5)nc4c2F)N2C[C@H]4CC[C@H](N4)[C@H]2CCO3)c1C(F)(F)F` (stereo partly drawn) [Example 135, 3-((6aR,7S,10R)-13-((1-(1-(dimethylamino)ethyl)cyclopropyl)methoxy)-1-fluoro-5,6,6a,7,8,9,10,11-octahydro-4-oxa-3,11a,12,14,15-pentaaza-7,10-methanocyclohepta[4,5]cycloocta [1,2,3-de]naphthalen-2-yl)-5-methyl-4-(trifluoromethyl)aniline], for which the IC50 on KRAS G12D is below 0.3 nM; on WT KRAS, 3 to 1000 nM.
